The values that follow come from US9079866B2, “Flap modulators” (JANSSEN PHARMACEUTICA NV, priority 2013, dated 2015).

By IC50 is commonly meant the midpoint of a concentration-inhibition curve. As a reminder, the Ki is a dissociation constant, usually derived from enzyme kinetics or from competition with a known ligand.

Structures can show the parent of a compound that is named as a salt. Where two headings read alike, the source gives them in different places.

In assay [1] the test system is leukotriene pathway in human whole blood (LTB4 levels). In words: Human whole blood assay (A23187-stimulated LTB4). Format: cell-based. The note with it: Homo sapiens, human whole blood diluted 1:1, A23187-stimulated; read-out: LTB4 IC50 1:1. The essentials: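 Compounds are pre-incubated 15 min at 37° Celsius in RPMI-diluted (1:1) heparinised whole blood before a 30 min A23187 stimulus (7 μg/mL). Plasma LTB4 is read by immunoassay kit, with IC50 calculated from a 4-parameter equation.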

Assay [2] deals with human FLAP (Homo sapiens (Human), UniProt P20292). In words: FLAP binding assay (HTRF format). In a few lines:
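Binding of compounds to FLAP read out as HTRF ratio. Values are the mean of two assay plates, each sample run in duplicate per plate.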
(TR-FRET usually uses a lanthanide donor and a delayed reading to cut background.)

human FLAP, sequence (P20292 whole entry): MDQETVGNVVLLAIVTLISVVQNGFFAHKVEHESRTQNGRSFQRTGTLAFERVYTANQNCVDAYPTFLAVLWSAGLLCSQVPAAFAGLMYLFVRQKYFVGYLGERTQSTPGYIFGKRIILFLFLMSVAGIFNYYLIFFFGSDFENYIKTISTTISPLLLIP

On to `CC(C)(C)NS(=O)(=O)c1ccccc1-c1ccc(-c2cnc(N)c(C(F)(F)F)c2)c(F)c1` [Example 452, 4′-[6-Amino-5-(trifluoromethyl)pyridin-3-yl]-N-tert-butyl-3′-fluorobiphenyl-2-sulfonamide trifluoroacetic acid salt], for which the IC50 in assay [1] came to 1950 nM. The Ki in assay [2] (read-out: FLAP Binding wild type HTRF Ki) stood at 81 nM.

In the case of `CC(C)(C)NS(=O)(=O)c1ccccc1-c1ccc(-c2cnc(N)nc2C(F)(F)F)c(F)c1` [Example 453, 4′-[2-Amino-4-(trifluoromethyl)pyrimidin-5-yl]-N-tert-butyl-3′-fluorobiphenyl-2-sulfonamide trifluoroacetic acid salt], the IC50 in assay [1] is greater than 10000 nM. Further, in assay [2] (wild type FLAP, HTRF format), the Ki was greater than 10000 nM.

With `Cc1nc(N)ncc1-c1ccc(-c2ccccc2S(=O)(=O)NC(C)(C)C)cc1F` [Example 454, 4-′-(2-Amino-4-methylpyrimidin-5-yl)-N-tert-butyl-3′-fluorobiphenyl-2-sulfonamide trifluoroacetic acid salt], the IC50 in assay [1] was 345 nM. In addition, the Ki in assay [2] (wild type FLAP, HTRF format) turned out to be 12 nM.

In the case of `CC(C)(C)NS(=O)(=O)c1ccccc1-c1ccc(-c2cnc3[nH]cc(CO)c3c2)c(F)c1` [Example 455, N-tert-Butyl-3′-fluoro-4′-[3-(hydroxymethyl)-1H-pyrrolo[2,3-b]pyridin-5-yl]biphenyl-2-sulfonamide], the IC50 in assay [1] was 94 nM. The Ki in assay [2] (wild type FLAP, HTRF format) stood at 1 nM.

Turning to `Nc1cc(-c2ccc(-c3ccccc3S(=O)(=O)NC3(CO)CCCC3)cc2F)cc2cc[nH]c12` [Example 456, 4′-(7-Amino-1H-indol-5-yl)-3′-fluoro-N-[1-(hydroxymethyl)cyclopentyl]biphenyl-2-sulfonamide], the IC50 in assay [1] came to 114 nM. The molecule also returned a Ki in assay [2] (wild type FLAP, HTRF format) of 3 nM.

Consider `CNS(=O)(=O)c1ccccc1-c1ccc(-c2cnc3[nH]cc(CO)c3c2)c(F)c1` [Example 457, 3′-Fluoro-4′-[3-(hydroxymethyl)-1H-pyrrolo[2,3-b]pyridin-5-yl]-N-methylbiphenyl-2-sulfonamide], for which the IC50 in assay [1] is 140 nM. This molecule displayed a Ki in assay [2] (wild type FLAP, HTRF format) of 3 nM.

With `CS(=O)(=O)c1ccccc1-c1ccc(-c2cnc(N)cn2)c(F)c1F` [Example 461, 5-[2,3-Difluoro-2′-(methylsulfonyl)biphenyl-4-yl]pyrazin-2-amine], the IC50 in assay [1] is 209 nM. Besides, the affinity in assay [2] (wild type FLAP, HTRF format) corresponds to a Ki of 41 nM.

Regarding `CC(C)(C)NS(=O)(=O)c1ccccc1-c1ccc(-c2cnc(N)cn2)c(F)c1F` [Example 462, 4′-(5-Aminopyrazin-2-yl)-N-tert-butyl-2′,3′-difluorobiphenyl-2-sulfonamide], the IC50 in assay [1] worked out at 62 nM. This molecule came in with a Ki in assay [2] (wild type FLAP, HTRF format) of 2 nM.

In the case of `CNS(=O)(=O)c1ccccc1-c1ccc(-c2cnc(N)nc2)c(F)c1F` [Example 465, 4′-(2-Aminopyrimidin-5-yl)-2′,3′-difluoro-N-methylbiphenyl-2-sulfonamide trifluoroacetic acid salt], in assay [1], the 50% inhibitory concentration (IC50) stood at 957 nM. The molecule further had a Ki in assay [2] (wild type FLAP, HTRF format) of 186 nM.

Turning to `Nc1cnc(-c2ccc(-c3ccc(OC(F)(F)F)cc3F)cc2F)cn1` [Example 467, 5-[2′,3-Difluoro-4′-(trifluoromethoxy)biphenyl-4-yl]pyrazin-2-amine], the IC50 in assay [1] came to 2830 nM. In addition, the Ki in assay [2] (wild type FLAP, HTRF format) came out at 250 nM.

As for `Nc1cnc(-c2ccc(-c3ccccc3Cl)cc2F)cn1` [Example 469, 5-(2′-Chloro-3-fluorobiphenyl-4-yl)pyrazin-2-amine], the IC50 in assay [1] was determined as 2350 nM. The affinity in assay [2] (wild type FLAP, HTRF format) corresponds to a Ki of 250 nM.

Turning to `Nc1cnc(-c2ccc(-c3ccc(C(F)(F)F)cc3F)cc2F)cn1` [Example 471, 5-[2′,3-Difluoro-4′-(trifluoromethyl)biphenyl-4-yl]pyrazin-2-amine], the IC50 in assay [1] came out at 3400 nM. The molecule also returned a Ki in assay [2] (wild type FLAP, HTRF format) of 250 nM.

As for `Nc1cnc(-c2ccc(-c3ccccc3C(F)(F)F)cc2F)cn1` [Example 472, 5-[3-Fluoro-2′-(trifluoromethyl)biphenyl-4-yl]pyrazin-2-amine], in assay [1], the IC50 is 2520 nM. Further, the affinity in assay [2] (wild type FLAP, HTRF format) corresponds to a Ki of 145 nM.
